Where “and” joins values, the source holds several entries; their conditions need not be identical. Equal values may be shown once. Read-outs that look alike come from different tables or passages of the source.
Experiment: TED14856 Part A: plasma pharmacokinetics of compound (1)
Assay type: in vivo, human
Conditions: for AUC(0-t) / Cmax / Vd/F / Tmax: human, plasma, oral; for Tmax: read-out: tmax (median)
[1] = repeated 20 mg once daily, Cycle1 Day 22, fasted, N=3
[2] = repeated 150 mg once daily, Cycle1 Day 22, fasted, N=2
[3] = repeated 200 mg once daily, Cycle1 Day 22, fasted, N=3
[4] = repeated 400 mg once daily, Cycle1 Day 22, fasted, N=3
[5] = repeated 600 mg once daily, Cycle1 Day 22, fasted, N=3
[6] = single 20 mg, Cycle1 Day 1, fasted, N = 1
[7] = single 150 mg, Cycle1 Day 1, fasted, N = 1
[8] = single 200 mg, Cycle1 Day 1, fasted, N=4
[9] = single 400 mg, Cycle1 Day 1, fasted, N=3
[10] = single 600 mg, Cycle1 Day 1, fasted, N = 2

Compound: O=C(O)c1ccc2c(c1)CCCC(c1ccc(Cl)cc1Cl)=C2c1ccc(O[C@H]2CCN(CCCF)C2)cc1 [compound (1), 6-(2,4-dichlorophenyl)-5-[4-[(3S)-1-(3-fluoropropyl)pyrrolidin-3-yl]oxyphenyl]-8,9-dihydro-7H-benzo[7]annulene-2-carboxylic acid]
- AUC(0-t) (400 mg, single 400 mg, Cycle1 Day 1, fasted, N=3, read-out: AUC0-24 (Mean ± SD)): 40400 ± 17500 ng·h/mL
- Cmax (400 mg, single 400 mg, Cycle1 Day 1, fasted, N=3, read-out: Cmax (Geometric Mean)): 4120 ng/mL
- Vd/F (400 mg, single 400 mg, Cycle1 Day 1, fasted, N=3, read-out: Vss/F (Geometric Mean)): 112 L
- Vd/F (400 mg, single 400 mg, Cycle1 Day 1, fasted, N=3, read-out: Vss/F (Mean ± SD)): 117 ± 40.6 L
- Tmax (400 mg, single 400 mg, Cycle1 Day 1, fasted, N=3): 3 h
- AUC(0-t) (600 mg, repeated 600 mg once daily, Cycle1 Day 22, fasted, N=3, read-out: AUC0-24 (Geometric Mean)): 41700 ng·h/mL
- AUC(0-t) (600 mg, repeated 600 mg once daily, Cycle1 Day 22, fasted, N=3, read-out: AUC0-24 (Mean ± SD)): 42700 ± 11200 ng·h/mL
- Cmax (600 mg, repeated 600 mg once daily, Cycle1 Day 22, fasted, N=3, read-out: Cmax (Geometric Mean)): 5510 ng/mL
- Cmax (600 mg, repeated 600 mg once daily, Cycle1 Day 22, fasted, N=3, read-out: Cmax (Mean ± SD)): 5570 ± 962 ng/mL
- Tmax (600 mg, repeated 600 mg once daily, Cycle1 Day 22, fasted, N=3): 3 h
- Vd/F (600 mg, single 600 mg, Cycle1 Day 1, fasted, N = 2, read-out: Vss/F (Geometric Mean)): 132 L
- Vd/F (600 mg, single 600 mg, Cycle1 Day 1, fasted, N = 2, read-out: Vss/F (Mean ± SD)): 137 L
- AUC(0-t) (600 mg, single 600 mg, Cycle1 Day 1, fasted, N=3, read-out: AUC0-24 (Geometric Mean)): 53400 ng·h/mL
- AUC(0-t) (600 mg, single 600 mg, Cycle1 Day 1, fasted, N=3, read-out: AUC0-24 (Mean ± SD)): 61100 ± 36300 ng·h/mL
- Cmax (600 mg, single 600 mg, Cycle1 Day 1, fasted, N=3, read-out: Cmax (Geometric Mean)): 6160 ng/mL
- Cmax (600 mg, single 600 mg, Cycle1 Day 1, fasted, N=3, read-out: Cmax (Mean ± SD)): 7010 ± 4180 ng/mL
- Tmax (600 mg, single 600 mg, Cycle1 Day 1, fasted, N=3): 3.03 h
- accumulation on Day 21/22 (once-daily administrations up to 200 mg): moderate accumulation
- accumulation on Day 21/22 (once-daily, doses higher than 200 mg): no accumulation
- CLss/F (Mean ± SD) [1]: 18.0 ± 13.7 L/h
- Ctrough (Mean ± SD) [1]: 8.10 ± 7.16 ng/mL
- CLss/F (Mean ± SD) [2]: 10.6 NC L/hr
- Ctrough (Geometric Mean) [2]: (115) [NC] ng/mL
- Ctrough (Mean ± SD) [2]: 126 NC ng/mL
- CLss/F (Mean ± SD) [3]: 15.3 ± 4.30 L/h
- Ctrough (Geometric Mean) [3]: (59.2) [73.6] ng/mL
- Ctrough (Mean ± SD) [3]: 76.1 ± 56.0 ng/mL
- CLss/F (Mean ± SD) [4]: 18.1 ± 17.4 L/h
- Ctrough (Geometric Mean) [4]: (253) [84.2] ng/mL
- Ctrough (Mean ± SD) [4]: 388 ng/mL and 388 ± 327 ng/mL
- CLss/F (Mean ± SD) [5]: 14.7 ± 3.96 L/h
- Ctrough (Geometric Mean) [5]: (314) [56.8] ng/mL
- Ctrough (Mean ± SD) [5]: 348 ± 197 ng/mL
- CL/F (Mean ± SD) [6]: 12.2 NC L/hr
- t1/2z (Geometric Mean) [6]: (4.86) [NC]^b hr
- t1/2z (Mean ± SD) [6]: 4.86 NC hr
- CL/F (Mean ± SD) [7]: 7.26 NC L/hr
- t1/2z (Geometric Mean) [7]: (6.42) [NC]^b hr
- t1/2z (Mean ± SD) [7]: 6.42 NC hr
- CL/F (Mean ± SD) [8]: 24.2 ± 17.0 L/h
- t1/2z (Geometric Mean) [8]: (7.31) [19.5] hr
- t1/2z (Mean ± SD) [8]: 7.41 ± 1.45 h
- CL/F (Mean ± SD) [9]: 9.86 ± 5.77 L/h
- t1/2z (Mean ± SD) [9]: 10.6 ± 2.33 h
- CL/F (Mean ± SD) [10]: 15.2 NC L/hr
- t1/2z (Geometric Mean) [10]: (8.97) [NC]^c hr
- t1/2z (Mean ± SD) [10]: 9.45 NC hr
- accumulation after repeated oral administration (up to 600 mg): limited accumulation
- dose proportionality of exposure (Cmax, AUC0-24h) (up to 600 mg, single or multiple once daily administrations): did not deviate significantly from dose proportionality
